Source: patent US20230192661A1, “1, 4, 5, 6-TETRAHYDROPYRIMIDINE-2-AMINE DERIVATIVE” (UBE Corporation, priority 2020, published 2023)

How the values were obtained:
αvβ1 = molecular target: T1, αvβ1 (UniProt G3HZ55+P06756); assay: αvβ1 cell adhesion inhibition test (αv-transfected CHO cells on human fibronectin); type: cell-based; conditions: human fibronectin coating, 1 mM MnCl2, 1 hour, read-out: IC50 (rate of inhibition of cell adhesion, αvβ1)
T1 construct: expressed in transfected cells; host or cells: CHO cells deficient in α5 gene, transfected with αv gene
Experimental: Test Example 1 was performed by partially modifying the method of Reed et al. (Sci Transl Med., 7 (288), 288ra79, 2015).
Human fibronectin (manufactured by Sigma-Aldrich Co. LLC, F0895) was prepared at 1.25 μg/mL with phosphate buffered saline (PBS), dispensed at 100 μL/well to a 96-well plate, and left standing overnight. The plate was washed with Hanks' balanced salt solution (HBSS), then subjected to blocking treatment with Dulbecco's modified Eagle medium (DMEM) containing 1% bovine serum-derived albumin (BSA) (FUJIFILM Wako Pure Chemical Corp., for cell culture, 017-22231), and used as a coated plate in the adhesion test.
αv-transfected cells (CHO cells deficient in α5 gene and transfected with αv gene) cultured in Ham's F-12 medium (FUJIFILM Wako Pure Chemical Corp., 087-08335) containing 10% fetal bovine serum (FBS), 1% penicillin/streptomycin/amphotericin B (manufactured by Thermo Fisher Scientific, Inc., 15240), 1 mM GlutaMAX Supplement (manufactured by Thermo Fisher Scientific, Inc., 35050), and 400 μg/mL hygromycin B (FUJIFILM Wako Pure Chemical Corp., 080-07683) were recovered and suspended in DMEM containing 1 mM MnCl2 (manufactured by Sigma-Aldrich Co. LLC, M1787) to prepare a cell suspension. A test compound dissolved in DMSO was added thereto.
The cell suspension of 1×10^6 cells/mL containing the test compound was added at 100 μL/well to the coated plate and left standing for 1 hour in a 5% CO2 incubator (37° C.). One hour later, the supernatant was removed, and the plate was washed with HBSS. The cells that adhered to each well in the plate were stained with crystal violet, and the cells were lysed, followed by absorbance measurement. Inhibition without substrate coating was defined as 100% inhibition, and inhibition when DMSO was added instead of the test compound was defined as 0% inhibition. The rate of inhibition of cell adhesion by the test compound was calculated according to the following expression.
Rate of inhibition of cell adhesion (%)=[1−{(Absorbance in the case of adding the test compound)−(Absorbance without substrate coating)}/{(Absorbance in the case of adding DMSO)−(Absorbance without substrate coating)}]×100
An IC50 value was calculated from the rate of inhibition of cell adhesion by the test compound. A: IC50<3 nM, B: 3 nM≤IC50<10 nM, C: 10 nM≤IC50<30 nM, D: 30 nM≤IC50<100 nM, or E: IC50≥100 nM.

[1] = test system: TGF-β activation (phosphorylated SMAD3); assay: TGF-β activation inhibition test (inhibition of SMAD3 phosphorylation in TFK-1 cells); type: cell-based; conditions: 48 h, fibronectin-coated plate, cultured 2 days, read-out: IC50 (rate of inhibition of phosphorylated SMAD3)
Experimental: In Test Example 3, the inhibition of TGF-β activation by a compound was detected with the inhibition of SMAD3 phosphorylation as an index. In Test Example 3, the same reagents as in Test Example 1 were used unless otherwise specified.
Human fibronectin was prepared at 14 μg/mL with PBS and then dispensed at 50 μL/well to a 96-well plate. The plate was left standing at room temperature for 1 hour or longer, followed by the removal of the fibronectin solution. The plate was washed with PBS and used as a coated plate.
A test compound dissolved in DMSO was added to RPMI medium 1640 (manufactured by Thermo Fisher Scientific, Inc., 11875) containing 1% FBS and 1% penicillin/streptomycin/amphotericin B to prepare a medium containing the test compound having a concentration of two times the final concentration. This medium was added at 100 μL/well to the coated plate. TFK-1 cells (Cell Resource Center for Biomedical Research, Institute of Development, Aging and Cancer, Tohoku University) cultured in RPMI medium 1640 containing 10% FBS and 1% penicillin/streptomycin/amphotericin B were suspended in RPMI medium 1640 containing 1% FBS and 1% penicillin/streptomycin/amphotericin B to prepare a cell suspension of 1×10^6 cells/mL. The prepared cell suspension was further added at 100 μL/well and cultured for 2 days in a 5% CO2 incubator (37° C.).
Phosphorylated SMAD3 in the cells thus cultured for 2 days was measured using Phospho-SMAD3 (Ser423/425) cellular kit (manufactured by cisbio, 63ADK025), and a DeltaF value was calculated according to the calculation expression of the kit. Inhibition when 10 μM LY364947 (FUJIFILM Wako Pure Chemical Corp., 123-05981) was added instead of the test compound was defined as 100% inhibition, and inhibition when DMSO was added instead was defined as 0% inhibition. The rate of inhibition of phosphorylated SMAD3 by the test compound was calculated according to the following expression.
Rate of inhibition of phosphorylated SMAD3 (%)=[1−{(DeltaF value in the case of adding the test compound)−(DeltaF value in the case of adding 10 μM LY364947)}/{(DeltaF value in the case of adding DMSO)−(DeltaF value in the case of adding 10 μM LY364947)}]×100
An IC50 value was calculated from the rate of inhibition of phosphorylated SMAD3 by the test compound. A: IC50<10 nM, B: 10 nM≤IC50<50 nM, C: 50 nM≤IC50<100 nM, or D: IC50≥100 nM.

T1 sequence (P06756 31-889 limits assumed): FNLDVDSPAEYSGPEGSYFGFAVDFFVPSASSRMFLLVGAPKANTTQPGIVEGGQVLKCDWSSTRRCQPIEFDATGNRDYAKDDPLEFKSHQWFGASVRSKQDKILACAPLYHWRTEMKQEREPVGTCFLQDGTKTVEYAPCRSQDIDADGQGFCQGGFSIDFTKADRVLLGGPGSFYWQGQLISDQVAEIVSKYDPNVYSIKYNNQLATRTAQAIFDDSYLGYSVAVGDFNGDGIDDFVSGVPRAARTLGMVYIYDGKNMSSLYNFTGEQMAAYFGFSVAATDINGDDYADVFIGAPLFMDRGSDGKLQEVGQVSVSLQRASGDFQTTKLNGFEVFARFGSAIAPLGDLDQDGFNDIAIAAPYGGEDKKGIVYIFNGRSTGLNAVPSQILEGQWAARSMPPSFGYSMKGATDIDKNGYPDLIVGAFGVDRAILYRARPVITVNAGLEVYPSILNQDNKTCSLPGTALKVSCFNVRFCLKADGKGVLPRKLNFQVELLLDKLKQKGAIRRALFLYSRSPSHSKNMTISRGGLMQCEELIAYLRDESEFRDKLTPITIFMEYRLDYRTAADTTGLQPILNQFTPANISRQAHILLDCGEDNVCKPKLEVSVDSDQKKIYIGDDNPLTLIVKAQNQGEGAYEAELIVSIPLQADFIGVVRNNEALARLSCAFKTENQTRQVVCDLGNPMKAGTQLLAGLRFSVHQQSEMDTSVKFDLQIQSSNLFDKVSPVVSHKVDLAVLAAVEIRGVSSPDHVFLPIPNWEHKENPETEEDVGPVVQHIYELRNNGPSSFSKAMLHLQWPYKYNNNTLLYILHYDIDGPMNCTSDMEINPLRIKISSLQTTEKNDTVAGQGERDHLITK
T1 sequence (P06756 891-1048 limits assumed): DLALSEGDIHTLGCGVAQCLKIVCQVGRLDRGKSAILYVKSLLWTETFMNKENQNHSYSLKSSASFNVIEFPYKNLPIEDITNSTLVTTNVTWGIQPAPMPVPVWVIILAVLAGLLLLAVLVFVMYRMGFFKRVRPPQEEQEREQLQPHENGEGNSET
T1 sequence (G3HZ55 21-798): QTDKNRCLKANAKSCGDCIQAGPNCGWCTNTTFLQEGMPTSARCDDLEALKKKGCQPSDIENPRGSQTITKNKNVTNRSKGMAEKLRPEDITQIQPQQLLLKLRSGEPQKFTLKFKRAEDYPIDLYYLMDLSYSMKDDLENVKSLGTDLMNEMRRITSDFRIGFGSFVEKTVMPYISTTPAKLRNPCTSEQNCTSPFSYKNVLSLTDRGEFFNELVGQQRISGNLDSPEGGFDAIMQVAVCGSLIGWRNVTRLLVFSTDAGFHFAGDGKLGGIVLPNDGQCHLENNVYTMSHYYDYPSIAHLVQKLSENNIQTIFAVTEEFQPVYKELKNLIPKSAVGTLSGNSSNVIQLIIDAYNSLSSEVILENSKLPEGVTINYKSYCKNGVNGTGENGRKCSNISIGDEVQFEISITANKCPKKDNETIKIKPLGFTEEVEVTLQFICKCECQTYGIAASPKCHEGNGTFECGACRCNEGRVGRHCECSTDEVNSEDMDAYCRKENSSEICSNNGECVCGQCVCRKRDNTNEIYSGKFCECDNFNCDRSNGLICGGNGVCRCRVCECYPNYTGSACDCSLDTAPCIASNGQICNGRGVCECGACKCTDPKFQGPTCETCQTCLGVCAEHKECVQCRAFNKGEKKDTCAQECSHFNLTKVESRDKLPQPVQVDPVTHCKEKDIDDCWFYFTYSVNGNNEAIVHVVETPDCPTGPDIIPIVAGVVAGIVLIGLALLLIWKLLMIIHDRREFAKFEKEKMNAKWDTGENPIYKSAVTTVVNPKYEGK

Compound	IC50 (αvβ1) [nM]	IC50 [1] [nM]
O=C(O)C[C@H](NC(=O)CNC(=O)c1cc(NC2=NCC(F)CN2)c2cn[nH]c2c1)c1cc(Cl)cc(C(F)(F)F)c1 (stereo partly drawn) [Example 1-(b), (3S)-3-(3-chloro-5-(trifluoromethyl)phenyl)-3-(2-(4-((5-fluoro-1,4,5,6-tetrahydropyrimidin-2-yl)amino)-1H-indazole-6-carboxamido)acetamido)propanoic acid]	< 3	< 10
O=C(O)C[C@H](NC(=O)CNC(=O)c1cc(NC2=NCC(F)CN2)c2cn[nH]c2c1)c1cc(Br)cc(C(F)(F)F)c1 (stereo partly drawn) [Example 2-(b), (3S)-3-(3-bromo-5-(trifluoromethyl)phenyl)-3-(2-(4-((5-fluoro-1,4,5,6-tetrahydropyrimidin-2-yl)amino)-1H-indazole-6-carboxamido)acetamido)propanoic acid]	3 to 10	< 10
O=C(O)C[C@H](NC(=O)CNC(=O)c1cc(NC2=NCC(F)CN2)c2cn[nH]c2c1)c1cc(I)cc(C(F)(F)F)c1 (stereo partly drawn) [Example 3-(b), (3S)-3-(2-(4-((5-fluoro-1,4,5,6-tetrahydropyrimidin-2-yl)amino)-1H-indazole-6-carboxamido)acetamido)-3-(3-iodo-5-(trifluoromethyl)phenyl)propanoic acid]	3 to 10	< 10
Cc1cc([C@H](CC(=O)O)NC(=O)CNC(=O)c2cc(NC3=NCC(F)CN3)c3cn[nH]c3c2)cc(C(F)(F)F)c1 (stereo partly drawn) [Example 4-(b), (3S)-3-(2-(4-((5-fluoro-1,4,5,6-tetrahydropyrimidin-2-yl)amino)-1H-indazole-6-carboxamido)acetamido)-3-(3-methyl-5-(trifluoromethyl)phenyl)propanoic acid]	3 to 10	< 10
COc1cc([C@H](CC(=O)O)NC(=O)CNC(=O)c2cc(NC3=NCC(F)CN3)c3cn[nH]c3c2)cc(C(F)(F)F)c1 (stereo partly drawn) [Example 5-(b), (3S)-3-(2-(4-((5-fluoro-1,4,5,6-tetrahydropyrimidin-2-yl)amino)-1H-indazole-6-carboxamido)acetamido)-3-(3-methoxy-5-(trifluoromethyl)phenyl)propanoic acid]	< 3	10 to 50
O=C(O)C[C@H](NC(=O)CNC(=O)c1cc(NC2=NCC(F)CN2)c2cn[nH]c2c1)c1cc(F)cc(C(F)(F)F)c1 (stereo partly drawn) [Example 6-(b), (3S)-3-(2-(4-((5-fluoro-1,4,5,6-tetrahydropyrimidin-2-yl)amino)-1H-indazole-6-carboxamido)acetamido)-3-(3-fluoro-5-(trifluoromethyl)phenyl)propanoic acid]	< 3	10 to 50
O=C(O)C[C@H](NC(=O)CNC(=O)c1cc(NC2=NCC(F)CN2)c2cn[nH]c2c1)c1cc(C(F)(F)F)cc(C(F)(F)F)c1 (stereo partly drawn) [Example 7-(b), (3S)-3-(3,5-bis(trifluoromethyl)phenyl)-3-(2-(4-((5-fluoro-1,4,5,6-tetrahydropyrimidin-2-yl)amino)-1H-indazole-6-carboxamido)acetamido)propanoic acid]	< 3	< 10
O=C(O)C[C@H](NC(=O)CNC(=O)c1cc(NC2=NCC(F)CN2)c2cn[nH]c2c1)c1cc(-n2cccn2)cc(C(F)(F)F)c1 (stereo partly drawn) [Example 8-(b), (3S)-3-(3-(1H-pyrazol-1-yl)-5-(trifluoromethyl)phenyl)-3-(2-(4-((5-fluoro-1,4,5,6-tetrahydropyrimidin-2-yl)amino)-1H-indazole-6-carboxamido)acetamido)propanoic acid]	< 3	< 10
O=C(O)C[C@H](NC(=O)CNC(=O)c1cc(NC2=NCC(F)CN2)c2cn[nH]c2c1)c1cccc(C(F)(F)F)c1F (stereo partly drawn) [Example 9-(b), (3S)-3-(2-(4-((5-fluoro-1,4,5,6-tetrahydropyrimidin-2-yl)amino)-1H-indazole-6-carboxamido)acetamido)-3-(2-fluoro-3-(trifluoromethyl)phenyl)propanoic acid]	3 to 10	50 to 100
O=C(O)C[C@H](NC(=O)CNC(=O)c1cc(NC2=NCC(F)CN2)c2cn[nH]c2c1)c1cccc(C(F)(F)F)c1Cl (stereo partly drawn) [Example 10-(b), (3S)-3-(2-chloro-3-(trifluoromethyl)phenyl)-3-(2-(4-((5-fluoro-1,4,5,6-tetrahydropyrimidin-2-yl)amino)-1H-indazole-6-carboxamido)acetamido)propanoic acid]	≥ 100	≥ 100
O=C(O)C[C@H](NC(=O)CNC(=O)c1cc(NC2=NCC(F)CN2)c2cn[nH]c2c1)c1cc(C(F)(F)F)ccc1F (stereo partly drawn) [Example 11-(b), (3S)-3-(2-(4-((5-fluoro-1,4,5,6-tetrahydropyrimidin-2-yl)amino)-1H-indazole-6-carboxamido)acetamido)-3-(2-fluoro-5-(trifluoromethyl)phenyl)propanoic acid]	3 to 10	< 10
O=C(O)C[C@H](NC(=O)CNC(=O)c1cc(NC2=NCC(F)CN2)c2cn[nH]c2c1)c1cc(C(F)(F)F)ccc1Cl (stereo partly drawn) [Example 12-(b), (3S)-3-(2-chloro-5-(trifluoromethyl)phenyl)-3-(2-(4-((5-fluoro-1,4,5,6-tetrahydropyrimidin-2-yl)amino)-1H-indazole-6-carboxamido)acetamido)propanoic acid]	3 to 10	≥ 100
O=C(O)C[C@H](NC(=O)CNC(=O)c1cc(NC2=NCC(F)CN2)c2cn[nH]c2c1)c1ccc(F)c(C(F)(F)F)c1 (stereo partly drawn) [Example 13-(b), (3S)-3-(2-(4-((5-fluoro-1,4,5,6-tetrahydropyrimidin-2-yl)amino)-1H-indazole-6-carboxamido)acetamido)-3-(4-fluoro-3-(trifluoromethyl)phenyl)propanoic acid]	< 3	10 to 50
Cc1ccc([C@H](CC(=O)O)NC(=O)CNC(=O)c2cc(NC3=NCC(F)CN3)c3cn[nH]c3c2)cc1C(F)(F)F (stereo partly drawn) [Example 14-(b), (3S)-3-(2-(4-((5-fluoro-1,4,5,6-tetrahydropyrimidin-2-yl)amino)-1H-indazole-6-carboxamido)acetamido)-3-(4-methyl-3-(trifluoromethyl)phenyl)propanoic acid]	< 3	< 10
O=C(O)C[C@H](NC(=O)CNC(=O)c1cc(NC2=NCC(F)CN2)c2cn[nH]c2c1)c1cc(Cl)c(F)c(C(F)(F)F)c1 (stereo partly drawn) [Example 15-(b), (3S)-3-(3-chloro-4-fluoro-5-(trifluoromethyl)phenyl)-3-(2-(4-((5-fluoro-1,4,5,6-tetrahydropyrimidin-2-yl)amino)-1H-indazole-6-carboxamido)acetamido)propanoic acid]	< 3	< 10
